Results as given in US7276511B2, “Benzylamine derivative” (Zeria Pharmaceutical Co., Ltd., priority 2003, dated 2007).
Where a name gives a salt, the structure may show the parent alone.

Target: T1, Cloned Neurokinin Receptor Subtype 2 Human (Homo sapiens, UniProt P21452)
T1 construct: purchased Biosignal Packard; host or cells: CHO cells
T1 sequence (P21452 1-398): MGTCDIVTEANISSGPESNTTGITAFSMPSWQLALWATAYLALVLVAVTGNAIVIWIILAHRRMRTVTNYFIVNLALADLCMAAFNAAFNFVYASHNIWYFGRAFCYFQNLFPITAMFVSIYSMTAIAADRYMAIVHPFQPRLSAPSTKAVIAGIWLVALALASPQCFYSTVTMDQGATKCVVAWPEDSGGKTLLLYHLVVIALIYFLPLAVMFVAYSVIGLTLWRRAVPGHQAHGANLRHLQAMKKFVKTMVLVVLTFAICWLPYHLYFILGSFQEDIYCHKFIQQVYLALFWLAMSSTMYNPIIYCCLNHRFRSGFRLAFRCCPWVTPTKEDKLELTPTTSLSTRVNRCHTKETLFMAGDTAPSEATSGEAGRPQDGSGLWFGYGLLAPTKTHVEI
Assay: NK-2 receptor-binding experiment ([3H]-SR48968, CHO cell membranes)
Details: Table 3; inhibition of [3H]-SR48968 (0.85 nM) binding, pseudo-Hill analysis
Experimental: 2. NK-2 Receptor-binding Experiment
Cloned Neurokinin Receptor Subtype 2 Human (CHO cells, Biosignal Packard), [^3H]-SR48968 (Amersham, final concentration 0.85 nM), and a test compound were mixed with 20 mM HEPES buffer, and the mixture was incubated for 50 minutes at 27° C. After completion of incubation, membrane components were collected by means of an automatic filtration apparatus (Brandel) onto a GF/C glass fiber filter (Whatman).
Before use, in order to prevent non-specific binding, the glass fiber filter had been pre-treated with 0.1% polyethylene imine solution for about 4 hours.
The filter employed to collect the membrane components was transferred to a plastic vial containing UltimaGold MV (5 mL), and measured by means of a liquid scintillation counter (Packard, 2000CA) in terms of the radioactivity.
Percent radioactive ligand-receptor binding inhibition of each test compound was calculated by use of the following equation, and IC50 (nM) was determined through pseudo-Hill analysis.
Percent inhibition (%)=[1−(C−A)/(B−A)]×100
A: Radioactivity attributed to non-specific binding
B: Radioactivity without test compound
C: Radioactivity with test compound

CCC(=O)N(C)C[C@](CCN1CCC2(CC1)c1ccccc1C[S@+]2[O-])(c1ccc(Cl)c(Cl)c1)N(C)C(=O)C(=O)N(C)c1ccccc1 [Compound No. 35, N^1-{1-(N-methyl-propionamide)-2-(S)-(3,4-dichlorophenyl)-4-[spiro(benzo(c)thiophene-(2S)-oxido-1(3H),4′-piperidin)-1′-yl]butan-2-yl}-N^1,N^2-dimethyl-N^2-phenyloxalamide hydrochloride]
IC50: 4.6 nM

CN(CC(CCN1CCC2(CC1)c1ccccc1C[S+]2[O-])(c1ccc(Cl)c(Cl)c1)N(C)C(=O)C(=O)Nc1ccccc1Cl)C(=O)CC(F)(F)F [Compound No. 9, N-(2-Chloro-phenyl)-N′-{1-(3,4-dichloro-phenyl)-1-{[methyl-(3,3,3-trifluoro-propionyl)-amino]-methyl}-3-{spiro[benzo(c)thiophene-1(3H),4′-piperidine]-(2S)-oxido}-1′-yl-propyl}-N′-methyl-oxalamide hydrochloride]
IC50: 7.2 nM

CN(C[C@](CCN1CCC2(CC1)NC(=O)Cc1ccccc12)(c1ccc(Cl)c(Cl)c1)N(C)C(=O)c1ccc(C(F)(F)F)cc1)C(=O)C(F)(F)F [Compound No. 24, N-{1-(2,2,2-trifluoro-N-methylacetamide)-2-(S)-(3,4-dichlorophenyl)-4-[3-oxo-3,4-dihydro-2H-spiro(isoquinoline-1,4′-piperidin)-1′-yl]butan-2-yl}-N-methyl-4-trifluoromethyl-benzamide hydrochloride]
IC50: 2.9 nM

CCN(C(=O)C(=O)N(C)[C@](CCN1CCC2(CC1)c1ccccc1C[S@+]2[O-])(CN(C)C(=O)C(C)C)c1ccc(Cl)c(Cl)c1)c1ccccc1 [Compound No. 39, N^1-{1-(N-methylisobutylamide)-2-(S)-(3,4-dichlorophenyl)-4-[spiro(benzo(c)thiophene-(2S)-oxido-1(3H),4′-piperidin)-1′-yl]butan-2-yl}-N^1-methyl-N^2-ethyl-N^2-phenyloxalamide hydrochloride]
IC50: 1 nM

CCOC(=O)C(=O)N(C)C(CCN1CCC2(CC1)c1ccccc1C[C@@H]2O)(COCc1cc(OC)c(OC)c(OC)c1)c1ccc(Cl)c(Cl)c1 (mixture of isomers) [Compound No. 21, N-[1-(3,4-Dichloro-phenyl)-3-{spiro[((2S)-hydroxy)indan-1,4′-piperidine]}-1′-yl-1-(3,4,5-trimethoxy-benzyloxymethyl)-propyl]-N-methyl-oxamic acid ethyl ester hydrochloride]
IC50: 8.7 nM

CN(C[C@](CCN1CCC2(CC1)NC(=O)Cc1ccccc12)(c1ccc(Cl)c(Cl)c1)N(C)C(=O)C(=O)Nc1ccccc1)C(=O)C(F)(F)F [Compound No. 29, N^1-{1-(2,2,2-trifluoro-N-methylacetamide)-2-(S)-(3,4-dichlorophenyl)-4-[3-oxo-3,4-dihydro-2H-spiro(isoquinoline-1,4′-piperidin)-1′-yl]butan-2-yl}-N^1-methyl-N^2-phenyloxalamide hydrochloride]
IC50: 4 nM

CN(C[C@](CCN1CCC2(CC1)NC(=O)Cc1ccccc12)(c1ccc(Cl)c(Cl)c1)N(C)C(=O)c1ccccc1)C(=O)CC(F)(F)F [Compound No. 22, N-{1-(3,3,3-trifluoro-N-methylpropanamido)-2-(S)-(3,4-dichlorophenyl)-4-[3-oxo-3,4-dihydro-2H-spiro(isoquinoline-1,4′-piperidin)-1′-yl]butan-2-yl}-N-methylbenzamide hydrochloride]
IC50: 0.95 nM

CCN(C(=O)C(=O)N(C)[C@](CCN1CCC2(CC1)c1ccccc1C[S@+]2[O-])(CN(C)C(=O)CC(F)(F)F)c1ccc(Cl)c(Cl)c1)c1ccccc1 [Compound No. 25, N^1-{1-(3,3,3-trifluoro-N-methylpropanamido)-2-(S)-(3,4-dichlorophenyl)-4-[spiro(benzo(c)thiophene-(2S)-oxido-1(3H),4′-piperidin)-1′-yl]butan-2-yl}-N^1-methyl-N^2-ethyl-N^2-phenyloxalamide hydrochloride]
IC50: 0.58 nM

CN(CC(CCN1CCC2(CC1)NC(=O)Cc1ccccc12)(c1ccc(Cl)c(Cl)c1)N(C)C(=O)NC(c1ccccc1)c1ccccc1)C(=O)C(F)(F)F (stereo not shown) [Compound No. 3, N-{2-(3-benzhydryl-1-methylureido)-2-(3,4-dihydrodichlorophenyl)-4-{spiro[isoquinoline-1(2H),4′-piperidine]-3(4H)-one}-1′-yl-butyl}-2,2,2-trifluoro-N-methyl-acetamide hydrochloride]
IC50: 1.7 nM

CN(CC(CCN1CCC2(CC1)c1ccccc1C[S@+]2[O-])(c1ccc(Cl)c(Cl)c1)N(C)C(=O)C(=O)N(C)c1ccccc1)C(=O)CC(F)(F)F (single isomer, unassigned) [Compound No. 10]
IC50: 4.1 nM

CCC(=O)N(C)C[C@](CCN1CCC2(CC1)c1ccccc1C[S@+]2[O-])(c1ccc(Cl)c(Cl)c1)N(C)C(=O)c1ccccc1 [Compound No. 34, N-{1-(N-methyl-propionamide)-2-(S)-(3,4-dichlorophenyl)-4-[spiro(benzo(c)thiophene-(2S)-oxido-1(3H),4′-piperidin)-1′-yl]butan-2-yl}-N-methylbenzamide hydrochloride]
IC50: 0.96 nM

CC(C)C(=O)N(C)C[C@](CCN1CCC2(CC1)c1ccccc1C[S@+]2[O-])(c1ccc(Cl)c(Cl)c1)N(C)C(=O)C(=O)N(C)c1ccccc1 [Compound No. 33, N^1-{1-(N-methylisobutylamide)-2-(S)-(3,4-dichlorophenyl)-4-[spiro(benzo(c)thiophene-(2S)-oxido-1(3H), 41-piperidin)-1′-yl]butan-2-yl}-N^1,N^2-dimethyl-N^2-phenyloxalamide hydrochloride]
IC50: 0.65 nM

CC(=O)N(C)C[C@](CCN1CCC2(CC1)NC(=O)Cc1ccccc12)(c1ccc(Cl)c(Cl)c1)N(C)C(=O)c1ccccc1 [Compound No. 36, N-{1-(N-methyl-acetamide)-2-(S)-(3,4-dichlorophenyl)-4-[3-oxo-3,4-dihydro-2H-spiro(isoquinoline-1,4′-piperidin)-1′-yl]butan-2-yl}-N-methylbenzamide hydrochloride]
IC50: 0.85 nM

CN(CC(CCN1CCC2(CC1)c1ccccc1C[S+]2[O-])(c1ccc(Cl)c(Cl)c1)N(C)C(=O)Cc1ccccc1)C(=O)CC(F)(F)F [Compound No. 14, N-[2-(3,4-Dichloro-phenyl)-2-(methyl-phenylacetyl-amino)-4-{spiro[benzo(c)thiophene-1(3H),4′-piperidine]-(2S)-oxido}-1′-yl-butyl]-3,3,3-trifluoro-N-methyl-propionamide hydrochloride]
IC50: 0.34 nM

CN(CC(CCN1CCC2(CC1)c1ccccc1CS2(=O)=O)(c1ccc(Cl)c(Cl)c1)N(C)C(=O)NC(c1ccccc1)c1ccccc1)C(=O)C(F)F (stereo not shown) [Compound No. 11, N-[2-(3-Benzhydryl-1-methyl-ureido)-2-(3,4-dichloro-phenyl)-4-{spiro[benzo(c)thiophene-1(3H),4′-piperidine]-2,2-dioxido}-1′-yl-butyl]-2,2-difluoro-N-methyl-acetamide hydrochloride]
IC50: 8.1 nM

CN(CC(CCN1CCC2(CC1)c1ccccc1C[S+]2[O-])(c1ccc(Cl)c(Cl)c1)N(C)C(=O)c1ccccc1)C(=O)CC(F)(F)F [Compound No. 13, N-{1-(3,4-Dichloro-phenyl)-1-{[methyl-(3,3,3-trifluoro-propionyl)-amino]-methyl}-3-{spiro[benzo(c)thiophene-1(3H),4′-piperidine]-(2S)-oxido}-1′-yl-propyl}-N-methyl-benzamide hydrochloride]
IC50: 2.6 nM

CCN(C(=O)C(=O)N(C)[C@](CCN1CCC2(CC1)c1ccccc1C[S@+]2[O-])(CN(C)C(=O)C(C)(C)C)c1ccc(Cl)c(Cl)c1)c1ccccc1 [Compound No. 37, N^1-{[1-(N-methyl-trimethylacetamide)-2-(S)-(3,4-dichlorophenyl)-4-[spiro(benzo(c)thiophene-(2S)-oxido-1(3H),4′-piperidin)-1′-yl]butan-2-yl}-N^1-methyl-N^2-ethyl-N^2-phenyloxalamide hydrochloride]
IC50: 1.8 nM

CCN(C(=O)C(=O)N(C)[C@](CCN1CCC2(CC1)NC(=O)Cc1ccccc12)(CN(C)C(=O)C(C)(C)C)c1ccc(Cl)c(Cl)c1)c1ccccc1 [Compound No. 38, N^1-{1-(N-methyl-trimethylacetamide)-2-(S)-(3,4-dichlorophenyl)-4-[3-oxo-3,4-dihydro-2H-spiro(isoquinoline-1,4′-piperidin)-1′-yl]butan-2-yl}-N^1-methyl-N^2-ethyl-N^2-phenyloxalamide hydrochloride]
IC50: 1.9 nM

CC(C)C(=O)N(C)C[C@](CCN1CCC2(CC1)c1ccccc1C[S@+]2[O-])(c1ccc(Cl)c(Cl)c1)N(C)C(=O)c1ccccc1 [Compound No. 32, N-{1-(N-methylisobutylamide)-2-(S)-(3,4-dichlorophenyl)-4-[spiro(benzo(c)thiophene-(2S)-oxido-1(3H),4′-piperidin)-1′-yl]butan-2-yl}-N-methylbenzamide hydrochloride]
IC50: 1 nM
